Columns and labels:
class C β-lactamase AmpC = target: class C β-lactamase AmpC; design: method as in PMID 20945905, PMID 23043117; conditions: AmpC from E. coli; cited from earlier work
SHV-1 = conditions: cited from earlier work
[1] = tested on: E. coli DH10B pBCSK, blaADC-7; design: method as in PMID 29144724; conditions: with CR167; cited from earlier work
ADC-7 = target: ADC-7; design: method as in PMID 29144724; conditions: cited from earlier work
ADC-33 = ADC-33 (Acinetobacter baumannii, UniProt A7Y407); test: Ki determination, competition assay with nitrocefin (NCF) as substrate; assay type: biochemical; conditions: for Ki: corrected for NCF affinity, 5 min pre-incubation, pH 7.4
Protocol: (§1) The affinity of CR167 for the two different β-lactamases was measured in competition assays using nitrocefin (NCF) as the indicator substrate (Table 1).
(§2) The binding affinity of each of the compounds 6a–e with ADC-33 and with OXA-24/40 was determined after 5 min pre-incubation of boronic acid and the enzyme, using competition assays with nitrocefin (NCF) as the substrate. […] These compounds differ in three structural characteristics: stereochemistry, the presence of the m-carboxylate on the aromatic ring, and the small chain linked to the chiral center. […] Finally, the smaller the steric hindrance is at the R1 position, the higher the affinity is.
(§3) Ki values were determined by using nitrocefin as a reporter substrate and treating the compounds as competitive inhibitors. Steady-state kinetic parameters were determined by combining pure enzyme with nitrocefin in 50 mM NaH2PO4; 25 mM NaHCO3, pH 7.4 (for OXA-24/40); or 50 mM NaH2PO4, pH 7.4 (for ADC-33), at room temperature. Changes in absorbance were measured on a Cary 60 UV−Vis spectrophotometer (Agilent Technologies) and converted to velocity using the change-in-extinction coefficient specific to nitrocefin (ε = 17,400 M^−1·cm^−1 at 482 nm). Initial velocities were fit to the Michaelis–Menten equation, yielding kcat and Km values. Next, the enzyme was challenged with a constant concentration of nitrocefin and increasing amounts of inhibitor. IC50 values were used to calculate Ki values using the Cheng–Prusoff equation as previously described. Specifically, the measurements of the initial velocities were performed with the addition of 100 µM NCF after a 5 min pre-incubation of the enzyme (2 nM) with increasing concentration of the inhibitor [37]. To determine the average velocities (v0), data from three experiments were fit to Equation (1): (1) v0=vu −{vu[I]/IC 50+[I]} where vu represents the NCF uninhibited velocity and IC50 represents the inhibitor concentration that results in a 50% reduction in vu. The Ki value was corrected for the NCF affinity (Km values for both OXA-24/40 and ADC-33) with the Cheng–Prusoff equation (Equation (2)): (2) Ki=IC50/(1+[NCF]/KmNCF)

OXA-24/40 = target: T1, OXA-24/40 (Acinetobacter baumannii, UniProt Q8RLA6); test: as above; assay type: biochemical
T1 construct: made in house
T1 sequence (Q8RLA6 22-275): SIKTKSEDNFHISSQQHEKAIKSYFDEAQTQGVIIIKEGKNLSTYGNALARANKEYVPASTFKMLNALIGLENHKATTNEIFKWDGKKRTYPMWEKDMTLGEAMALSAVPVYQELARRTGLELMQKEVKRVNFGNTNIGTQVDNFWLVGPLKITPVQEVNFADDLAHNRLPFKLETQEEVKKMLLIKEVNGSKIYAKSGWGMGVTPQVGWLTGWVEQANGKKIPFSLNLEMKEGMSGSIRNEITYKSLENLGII
Protocol: as §1, §2, §3

KPC-2 = tested on: KPC-2; design: method as in PMID 26729496; conditions: cited from earlier work

| SMILES | Ki (class C β-lactamase AmpC) [nM] | IC50 (SHV-1) [nM] | MIC for CAZ with CR167 [1] [µg/mL] | Ki (ADC-7) [nM] | Ki (ADC-33) [nM] | Ki (OXA-24/40) [nM] | IC50 (KPC-2) [nM] | fold more potent than 6d, ADC-33 (ADC-33; ratio of Ki, 6b vs 6d) [fold] | fold higher affinity than compound 6a for OXA-24/40 (OXA-24/40; ratio of Ki, 6b vs 6a) [fold] | fold more potent than 6d, OXA-24/40 (OXA-24/40; ratio of Ki, 6b vs 6d) [fold] |
| --- | --- | --- | --- | --- | --- | --- | --- | --- | --- | --- |
| O=C(O)c1cccc(CS(=O)(=O)NCB(O)O)c1 [CR167] | 1.3 | 430 | 1 | 160 | 57 ± 15 | 4400 ± 500 | 200 |  |  |  |
| C[C@@H](NS(=O)(=O)Cc1cccc(C(=O)O)c1)B(O)O [6b] |  |  |  |  | 790 ± 200 | 5200 ± 500 |  | 28 | 120 | 60 |
